Patent US3947578A, “Omega-[4-(3"-indolyl)-piperidino]-alkyl-arylketones as nevroleptics” (Roussel Uclaf, priority 1972, dated 1976)
Where a name gives a salt, the structure may show the parent alone. Read-outs that look alike come from different tables or passages of the source.

Assays:
young rat = assay: cataleptic activity test; assay type: in vivo; settings: ip, I.P., dose provoking catalepsy in 50% of the animals, read-out: DE50 Test of Cataleptic Activity
Source text: c. […] The DE50 dose is that dose provoking catalepsy in 50% of the animals after administration of the product.

mouse [1] = assay: traction test (neuroleptic activity); assay type: in vivo; settings: ip, 25 min, I.P., 25 minutes after intraperitoneal administration, read-out: DE50 Traction Test
Description: a. The traction test which consists of suspending a mouse by his front paws from a metal wire stretched horizontally. […] The test was run 25 minutes after intraperitoneal administration of the test product to determine the DE50 dose at which 50% of the animals effected recovering in less than 5 seconds.

mouse [2] = assay: chimney test (neuroleptic activity); assay type: in vivo; settings: ip, 25 min, I.P., 25 minutes after intraperitoneal administration, read-out: DE50 Chimney Test
Description: (§1) b. The chimney test which consists of placing a mouse in the extreme end of a glass tube 30 cm long and with a diameter adapted to the size of the animal. This tube is straightened vertically in a rapid motion and the animal with its head down mounts normally the length of the tube in less than 30 seconds. The test was effected 25 minutes after intraperitoneal administration of the test compounds to determine the DE50 dose which is the dose at which 50% of the animals effected a mounting in less than 30 seconds.

dogs = assay: anti-emetic activity test vis-a-vis apomorphine hydrochloride; assay type: in vivo, dog; settings: Canis lupus familiaris, ip, read-out: DE50 Test of Anti-emetic Activity
Description: (§2) The neuroleptic activity of the compounds of Examples 1 to 8 were determined in the following 4 tests and the results are reported in Table I:
(§3) d. The anti-emetic activity test which is determined on dogs vis-a-vis a subcutaneous injection of 0.1 mg/kg of apomorphine hydrochloride to determine the DE50 dose which is that dose which reduces 50% of the number of vomitings provoked by the injection of apomorphine hydrochloride.

acute toxicity (DL50) = settings: mouse, in vivo, ip; I.P.; mice; mortality recorded 48 hours after administration
Description: The different products were tested for the dose which would kill 50% of mice when administered intraperitoneally (DL50).

[3] = neuroleptic activity, overall (4 tests of Table I); assay type: in vivo; settings: summary of Table I
Description: as §2
a. The traction test which consists of suspending a mouse by his front paws from a metal wire stretched horizontally. In a time less than 5 seconds, the normal animal effected recovering by managing to bring one of the rear paws to the wire. The test was run 25 minutes after intraperitoneal administration of the test product to determine the DE50 dose at which 50% of the animals effected recovering in less than 5 seconds.
as §1
c. The cataleptic activity test using the technique of Boissier et al [Therapie, Vol. 18 (1963), p. 1257-1277] with a young rat having slightly twisted homolaterally paws and noting the intensity of catalepsy. The DE50 dose is that dose provoking catalepsy in 50% of the animals after administration of the product.
as §3

[4] = I.P., dogs, subcutaneous 0.1 mg/kg apomorphine hydrochloride, 50% reduction of vomitings

## COc1ccc2c(C3CCN(CCCC(=O)c4ccc(F)cc4)CC3)c[nH]c2c1 [Example 3, p-fluoro-ω-[4'-(6"-methoxy-3"-indolyl)-piperidino]-butyrophenone hydrochloride]
Young rat
  ED50: 2 mg/kg
Mouse [1]
  ED50: 1.2 mg/kg
Mouse [2]
  ED50: 0.9 mg/kg
dogs; [4]
  ED50: 0.01 mg/kg
Acute toxicity (DL50)
  LD50 at 48 h: 190 mg/kg
[3]
  neuroleptic activity (in words): very interesting neuroleptic activity

## O=C(CCCN1CCC(c2c[nH]c3ccccc23)CC1)c1ccc(F)cc1 [Example 1, p-fluoro-ω-[4'-(3"-indolyl)-piperidino]-butyrophenone hydrochloride]
Young rat
  ED50: 8.5 mg/kg
Mouse [1]
  ED50: 2.2 mg/kg
Mouse [2]
  ED50: 1.6 mg/kg
dogs; [4]
  ED50: 0.02 mg/kg
Acute toxicity (DL50)
  LD50 at 48 h: 100 mg/kg
[3]
  neuroleptic activity (in words): very interesting neuroleptic activity

## Cn1cc(C2CCN(CCCC(=O)c3ccc(F)cc3)CC2)c2ccccc21 [Example 2, p-fluoro-ω-[4'-(1"-methyl-3"-indolyl)-piperidino]-butyrophenone hydrochloride]
Young rat
  ED50: 12 mg/kg
Mouse [1]
  ED50: 5.2 mg/kg
Mouse [2]
  ED50: 4.5 mg/kg
dogs
  ED50: 0.2 mg/kg
Acute toxicity (DL50)
  LD50 at 48 h: 185 mg/kg

## O=C(CCCN1CCC(c2c[nH]c3ccccc23)CC1)c1ccccc1 [Example 7, ω-[4'-(3'-indolyl)-piperidino]-butyrophenone hydrochloride]
Young rat
  ED50: 11 mg/kg
Mouse [1]
  ED50: 7 mg/kg
Mouse [2]
  ED50: 4 mg/kg
dogs; [4]
  ED50: 0.06 mg/kg
Acute toxicity (DL50)
  LD50 at 48 h: 300 mg/kg

## O=C(CCN1CCC(c2c[nH]c3ccccc23)CC1)c1ccc(F)cc1 [Example 8, hydrochloride]
Mouse [1]
  ED50: 2.5 mg/kg
Mouse [2]
  ED50: 2.7 mg/kg
Acute toxicity (DL50)
  LD50 at 48 h: 600 mg/kg

## COc1ccc2[nH]cc(C3CCN(CCCC(=O)c4ccc(F)cc4)CC3)c2c1 [Example 4, p-fluoro-ω-[4'-(5"-methoxy-3"-indolyl)-piperidino]-butyrophenone hydrochloride]
Young rat
  ED50: 6 mg/kg
Mouse [1]
  ED50: 1 mg/kg
Mouse [2]
  ED50: 0.2 mg/kg
dogs; [4]
  ED50: < 0.3 mg/kg
Acute toxicity (DL50)
  LD50 at 48 h: 300 mg/kg
[3]
  neuroleptic activity (in words): very interesting neuroleptic activity

## COc1ccc2c(C3CCN(CCCC(=O)c4ccc(F)cc4)CC3)c(C)[nH]c2c1 [Example 5, p-fluoro-ω-[4'-(2"-methyl-6"-methoxy-3"-indolyl)-piperidino]butyrophenone]
Young rat
  ED50: 3.5 mg/kg
Mouse [1]
  ED50: 3.8 mg/kg
Mouse [2]
  ED50: 0.3 mg/kg
dogs; [4]
  ED50: 0.0045 mg/kg
Acute toxicity (DL50)
  LD50 at 48 h: 600 mg/kg
[3]
  neuroleptic activity (in words): very interesting neuroleptic activity

## O=C(CCCN1CCC(c2c[nH]c3ccccc23)CC1)c1ccc(Br)cc1 [Example 6, p-bromo-ω-[4'-(3"-indolyl)-piperidino]-butyrophenone hydrochloride]
Acute toxicity (DL50)
  LD50 at 48 h: 300 mg/kg
